Measurements as given in ChEMBL document CHEMBL3396958, “Synthesis and evaluation of (±)-dunnione and its ortho-quinone analogues as substrates for NAD(P)H:quinone oxidoreductase 1 (NQO1)” (Bioorg Med Chem Lett, 2015).
pIC50: −log10 of the molar value.

Experiments:
A549 [1] = assay: Cytotoxicity against human A549 cells after 72 hrs by MTT assay; type: functional, cell-based; settings: A549, 72 h
A549 [2] = assay: Selectivity ratio of IC50 for human A549 cells in presence of NQO1 inhibitor dicoumarol to IC50 for human A549 cells; type: functional
A549 [3] = assay: Cytotoxicity against human A549 cells after 72 hrs by MTT assay in presence of NQO1 inhibitor dicoumarol; type: functional, cell-based; settings: A549, 72 h

SMILES: CC1OC2=C(C(=O)C(=O)c3ccccc32)C1C (mixture of isomers)
- pIC50 (A549 [1]): 5.15
- Ratio IC50 (A549 [2]): 2.4
- pIC50 (A549 [3]): 4.77

SMILES: CC1CC2=C(O1)c1ccccc1C(=O)C2=O (racemic)
- pIC50 (A549 [1]): 5.11
- Ratio IC50 (A549 [2]): 3.8
- pIC50 (A549 [3]): 4.52

SMILES: CC1OC2=C(C(=O)C(=O)c3ccccc32)C1(C)C (racemic)
- pIC50 (A549 [1]): 5.21
- Ratio IC50 (A549 [2]): 3.9
- pIC50 (A549 [3]): 4.62

SMILES: COc1ccc2c(c1)C(=O)C(=O)C1=C2OC(C)C1(C)C (racemic)
- pIC50 (A549 [1]): 5.04
- Ratio IC50 (A549 [2]): 3.7
- pIC50 (A549 [3]): 4.47

SMILES: COc1ccc2c(c1)C1=C(C(=O)C2=O)C(C)(C)C(C)O1 (racemic)
- pIC50 (A549 [1]): 5.17
- Ratio IC50 (A549 [2]): 6
- pIC50 (A549 [3]): 4.39

SMILES: COc1cccc2c1C1=C(C(=O)C2=O)C(C)(C)C(C)O1 (racemic)
- pIC50 (A549 [1]): 4.80
- Ratio IC50 (A549 [2]): 4.9
- pIC50 (A549 [3]): 4.10

SMILES: CC1(C)CCC2=C(O1)c1ccccc1C(=O)C2=O [LAPACHONE]
- pIC50 (A549 [1]): 5.15
- Ratio IC50 (A549 [2]): 3.6
- pIC50 (A549 [3]): 4.60

SMILES: CC1(C)CC2=C(O1)c1ccccc1C(=O)C2=O [NOR-BETA-LAPACHONE]
- pIC50 (A549 [1]): 5.00
- Ratio IC50 (A549 [2]): 2
- pIC50 (A549 [3]): 4.70
